In patent publication US20150259344A1, “IMIDAZOLE DERIVATIVE” (DAINIPPON SUMITOMO PHARMA CO., LTD., priority 2012, published 2015):

These molecules were tested against T1, human α7 nAChR (Homo sapiens, UniProt P36544) (assay: Evaluation of PAM activity with human α7 nACh receptor stably expressing cells (aequorin luminescence, FDSS7000)). Conditions: 1 μM test compound (values marked *, footnote of Table 25); ACh at EC20; ratio of RLU (Max-Min) to control wells; read-out: α7PAM (%) @1 μM.
T1 construct: expressed in transfected cells
T1 sequence (P36544 23-502): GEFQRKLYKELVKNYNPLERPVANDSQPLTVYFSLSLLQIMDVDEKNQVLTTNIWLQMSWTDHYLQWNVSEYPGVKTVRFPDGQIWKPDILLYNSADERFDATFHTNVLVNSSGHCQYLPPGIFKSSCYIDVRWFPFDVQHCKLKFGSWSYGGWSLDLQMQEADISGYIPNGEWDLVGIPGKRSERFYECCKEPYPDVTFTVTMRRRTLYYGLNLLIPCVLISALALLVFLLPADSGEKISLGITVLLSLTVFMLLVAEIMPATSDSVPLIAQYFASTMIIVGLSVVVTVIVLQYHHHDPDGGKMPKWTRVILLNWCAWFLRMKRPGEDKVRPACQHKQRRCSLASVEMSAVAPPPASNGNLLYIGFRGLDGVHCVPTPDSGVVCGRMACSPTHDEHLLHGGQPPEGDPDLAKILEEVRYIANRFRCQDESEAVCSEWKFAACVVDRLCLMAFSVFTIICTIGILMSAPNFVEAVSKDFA
Format: cell-based
Method: Evaluation of PAM activity with human α7 nACh receptor stably expressing cells
(1) Human α7 nAChR stably expressing cells
Human α7 nAChR stably expressing cells were generated and cultured.
Thus, the cells were subcultured.
Seven days after subculturing, the cells were treated with TrypLE Express to collect them when they were about 80% confluent.
On the next day after seeding, Viviren (cat#E649X, Promega, Madison, Wis., USA) was added to the medium so that the final concentration could be 4 μM (15 μL/well). The plates were centrifuged and then placed in the dark for 4 hours at room temperature.
(2) Preparation of the Test Samples
Each of the test compounds was dissolved in DMSO to prepare each test sample at a concentration of 1000-fold the final concentration. To the solution was added Hanks/20 mM HEPES/0.2% BSA (cat#A3803, Sigma, St. Louis, Mo., USA), and the concentration was adjusted to 6-fold the final concentration.
(3) Evaluation of PAM Activity
FDSS7000 (Hamamatsu Photonics) was used to detect the luminescence signal evoked by α7 nAChR stimulation. The cells and a luminescent substrate were put on a plate, and the test sample was added thereto. […] The ratio of the RLU (Max-Min) of the test-compound-containing wells to that of the control wells was defined as PAM activity.

Structure (SMILES)	activity at 1 µM
O=C(NC1CCCCC1)N1[C@@H]2CC[C@H]1C[C@@H](n1cnc(-c3cc(F)ccc3F)c1)C2 [Example 389]	163%
O=C(N[C@H]1CC[C@@H](n2cnc(-c3ccc(F)cc3)c2Cl)CC1)c1ccc(F)cc1 [Example 184]	303%
CC(C)(F)C(=O)N[C@H]1CC[C@@H](n2cnc(-c3ccc(F)c(OC(F)(F)F)c3)c2C#N)CC1 [Example 350]	670%
CC(C)(C)C(=O)N[C@H]1CC[C@@H](n2cnc(-c3ccc(C(F)(F)F)cc3)c2C#N)CC1 [Example 199]	230%
CC(C)(F)C(=O)N[C@H]1CC[C@@H](n2cnc(-c3cc(OC(F)(F)F)ccc3F)c2)CC1 [Example 304]	600%
O=C(NC1CCOCC1)[C@H]1CC[C@@H](n2cnc(-c3ccc(F)c(F)c3)c2)CC1 [Example 357]	130%
N#Cc1c(-c2ccc(F)cc2F)ncn1[C@H]1C[C@H]2CC[C@@H](C1)N2C(=O)C1CCC(F)(F)CC1 [Example 443]	368%
O=C(C1CCC(F)(F)CC1)N1[C@@H]2CC[C@H]1C[C@@H](n1cnc(-c3cc(F)ccc3F)c1)C2 [Example 430]	110%
O=C(NC1CCC(F)(F)CC1)N1[C@@H]2CC[C@H]1C[C@@H](n1cnc(-c3ccc(F)cc3F)c1)C2 [Example 384]	652%

Same assay, conditions: 10 μM test compound; ACh at EC20; ratio of RLU (Max-Min) to control wells

Structure (SMILES)	α7PAM (%) @10 μM
O=C(NC1CCCCC1)N1CCC(n2cnc(-c3cccs3)c2)CC1 [Example 129]	330%

Same assay, conditions: 10 μM test compound; ACh at EC20; ratio of RLU (Max-Min) to control wells; read-out: α7PAM (%) @10 μM

Structure (SMILES)	activity at 10 µM
O=C(NC1CC2CCC1C2)N1CCC(n2cnc(-c3ccccc3)c2)CC1 (stereo not shown) [Example 38]	311%
O=C(NC1CCC(F)(F)CC1)N1CCC(n2cnc(-c3cccc(OC(F)F)c3)c2)CC1 [Example 59]	707%
O=C(C1CCOCC1)N1CCC(n2cnc(-c3ccc(C(F)(F)F)cc3)c2Cl)CC1 [Example 262]	603%
CC(C)(C(=O)N[C@H]1CC[C@@H](n2cnc(-c3ccc(Cl)cc3)c2)CC1)C(F)(F)F [Example 293]	211%
N#Cc1c(-c2cccc(F)c2F)ncn1[C@H]1C[C@H]2CC[C@@H](C1)N2C(=O)NC1CCC(F)(F)CC1 [Example 404]	292%
COc1ccc(-c2cn([C@H]3CC[C@@H](NC(=O)C(C)(C)F)CC3)cn2)cc1Cl [Example 308]	513%
CC(C)(F)C(=O)N[C@H]1CC[C@@H](n2cnc(-c3ccc(OC(F)(F)F)c(F)c3)c2C#N)CC1 [Example 348]	131%
CC(C)(F)C(=O)N[C@H]1CC[C@@H](n2cnc(-c3ccc(OC(F)(F)F)cc3)c2)CC1 [Example 278]	834%
O=C(N[C@H]1CC[C@H](n2cnc(-c3ccccc3)c2Cl)CC1)C1CCC(F)(F)CC1 [Example 207]	115%
O=C(NC1CCCC1)N1CCC(n2cnc(-c3ccccc3)c2)CC1 [Example 36]	193%
O=C(C1CCC(F)(F)CC1)N1[C@@H]2CC[C@H]1C[C@H](n1cnc(-c3ccc(F)cc3)c1)C2 [Example 446]	143%
CC(C)(C)NC(=O)N1CCC(n2cnc(-c3ccccc3)c2CO)CC1 [Example 111]	153%
O=C(N[C@H]1CC[C@H](n2cnc(-c3ccccc3)c2)CC1)C1CCC(F)(F)CC1 [Example 205]	110%
COc1ccc(-c2ncn(C3CCN(C(=O)C4CCC(F)(F)CC4)CC3)c2Cl)cc1 [Example 148]	700%
O=C(C1CCC(F)(F)CC1)N1CCC(n2cnc(-c3ccc(F)cc3)c2Cl)CC1 [Example 149]	862%
O=C(NC1CCOCC1)N1CCC(n2cnc(-c3ccc(Cl)cc3F)c2)CC1 [Example 248]	901%
O=C(Nc1ccccc1F)N1CCC(n2cnc(-c3ccc(C(F)(F)F)cc3)c2)CC1 [Example 24]	228%
Cc1c(-c2ccc(F)cc2)ncn1[C@H]1CC[C@@H](NC(=O)C(C)(C)C)CC1 [Example 354]	230%
O=C(C1CCC(F)(F)CC1)N1[C@@H]2CC[C@H]1C[C@H](n1cnc(-c3ccccc3)c1)C2 [Example 449]	183%
O=C(NC1CCOCC1)N1CCC(n2cnc(-c3ccc(F)cc3)c2)CC1 [Example 245]	197%
CC(C)(C)NC(=O)N1CCC(n2cnc(-c3ccccc3)c2C#N)CC1 [Example 100]	708%
Cc1ccccc1-c1cn(C2CCN(C(=O)Nc3ccccc3F)CC2)cn1 [Example 13]	161%

Structure (SMILES)	activity at 10 µM
CC(C)(C)C(=O)N[C@H]1CC[C@@H](n2cnc(-c3ccc(OC(F)(F)F)cc3)c2)CC1 [Example 279]	236%
O=C(NC1CCC(F)(F)CC1)N1CCC(n2cnc(-c3cccc(F)c3)c2)CC1 [Example 32]	993%
O=C(C1CCOCC1)N1[C@@H]2CC[C@H]1C[C@@H](n1cnc(-c3cc(F)ccc3F)c1Cl)C2 [Example 438]	235%
O=C(NC1CCOCC1)N1CCC(n2cnc(-c3cccc(F)c3)c2Cl)CC1 [Example 253]	899%
N#Cc1c(-c2cccc(F)c2)ncn1C1CCN(C(=O)C2CCC(F)(F)CC2)CC1 [Example 155]	252%
Cc1c(-c2ccc(F)cc2)ncn1C1CCN(C(=O)C2CCOCC2)CC1 [Example 276]	244%
COc1ccc(-c2cn([C@H]3CC[C@@H](NC(=O)C(C)(C)F)CC3)cn2)c(F)c1 [Example 307]	634%
COc1cccc(-c2cn(C3CCN(C(=O)NC(C)(C)C)CC3)cn2)c1 [Example 70]	158%
CCOc1ccc(-c2cn(C3CCN(C(=O)NC4CC5CCC4C5)CC3)cn2)cc1 (stereo not shown) [Example 58]	318%
O=C(C1CCC(F)(F)CC1)N1[C@@H]2CC[C@H]1C[C@@H](n1cnc(-c3ccccc3)c1)C2 [Example 428]	144%
O=C(NC1CCC(F)(F)CC1)N1CCC(n2cnc(-c3cc(F)cc(F)c3)c2)CC1 [Example 35]	878%
N#Cc1c(-c2ccc(F)cc2)ncn1[C@H]1CC[C@@H](NC(=O)C2CCOCC2)CC1 [Example 336]	557%
O=C(NC1CCCCC1)N1CCC(n2cnc(-c3ccccc3)c2)CC1 [Example 37]	366%
N#Cc1c(-c2ccc(F)cc2F)ncn1[C@@H]1C[C@H]2CC[C@@H](C1)N2C(=O)NC1CCC(F)(F)CC1 [Example 422]	131%
Cc1c(-c2ccc(F)cc2)ncn1C1CCN(C(=O)NC2CCOCC2)CC1 [Example 259]	420%
CC(C)(F)C(=O)N[C@H]1CC[C@@H](n2cnc(-c3cccc(Cl)c3)c2)CC1 [Example 286]	469%
O=C(NC1CC2CCC1C2)N1CCC(n2cnc(-c3cccc(OC(F)F)c3)c2)CC1 (stereo not shown) [Example 56]	169%
O=C(C1CCC(F)(F)CC1)N1[C@@H]2CC[C@H]1C[C@@H](n1cnc(-c3ccc(F)cc3)c1)C2 [Example 425]	155%
O=C(NC1CCCCC1)N1CCC(n2cnc(-c3ccc(Cl)s3)c2)CC1 [Example 117]	853%
Cc1c(-c2ccc(F)cc2)ncn1C1CCN(C(=O)NC(C)(C)C)CC1 [Example 257]	439%
O=C(NC1CCCCC1)N1CCCC(n2cnc(-c3ccc(F)cc3)c2)CC1 (stereo not shown) [Example 240]	280%
O=C(NC1CCCCC1)N1CCC(n2cnc(-c3cccc(OC(F)F)c3)c2)CC1 [Example 53]	256%

Same assay, conditions: GH4-C1, 10 μM test compound; ratio of RLU (Max-Min) of test wells to control wells after ACh at EC20; GH4C1 cells expressing human α7 nAChR and aequorin; read-out: α7PAM (%) @10 μM

Structure (SMILES)	activity at 10 µM
O=C(NC1CCCCC1)[C@H]1CC[C@H](n2cnc(-c3ccccc3)c2Cl)CC1 [Example 233]	102%
